According to patent publication US20230150974A1 (Foghorn Therapeutics Inc., priority 2020, published 2023):

Tests used:
[1] = target: T1, HiBit-BRG1 (Homo sapiens, UniProt P51532); experiment: HiBit-BRG1 cell-based degradation assay (Nano-Glo HiBiT Lytic Detection); conditions: HeLa cells expressing HiBit-BRG1 and LgBit, 24 h; for DC50: read-out: BRG1 HiBit Degradation IC50; for Dmax: read-out: BRG1 HiBit Degradation Maximum (%)
T1 construct: expressed in transfected cells
Procedure, shortened: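 Seed 5000 HeLa HiBit-BRG1/LgBit cells per well; treat 24 h; equilibrate 15 min at room temperature; add Nano-Glo HiBiT lytic reagent, shake 10 min, read luminescence. Percent degradation is scaled between DMSO and 2 μM reference degrader wells.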

[2] = target: T2, HiBiT-BRM (Homo sapiens, UniProt P51531); experiment: HiBiT-BRM cell-based degradation assay (Nano-Glo HiBiT Lytic Detection); conditions: HeLa cells expressing HiBiT-BRM, 24 h; for DC50: read-out: BRM HiBit Degradation IC50
T2 construct: expressed in transfected cells
T2 sequence (P51531 whole entry): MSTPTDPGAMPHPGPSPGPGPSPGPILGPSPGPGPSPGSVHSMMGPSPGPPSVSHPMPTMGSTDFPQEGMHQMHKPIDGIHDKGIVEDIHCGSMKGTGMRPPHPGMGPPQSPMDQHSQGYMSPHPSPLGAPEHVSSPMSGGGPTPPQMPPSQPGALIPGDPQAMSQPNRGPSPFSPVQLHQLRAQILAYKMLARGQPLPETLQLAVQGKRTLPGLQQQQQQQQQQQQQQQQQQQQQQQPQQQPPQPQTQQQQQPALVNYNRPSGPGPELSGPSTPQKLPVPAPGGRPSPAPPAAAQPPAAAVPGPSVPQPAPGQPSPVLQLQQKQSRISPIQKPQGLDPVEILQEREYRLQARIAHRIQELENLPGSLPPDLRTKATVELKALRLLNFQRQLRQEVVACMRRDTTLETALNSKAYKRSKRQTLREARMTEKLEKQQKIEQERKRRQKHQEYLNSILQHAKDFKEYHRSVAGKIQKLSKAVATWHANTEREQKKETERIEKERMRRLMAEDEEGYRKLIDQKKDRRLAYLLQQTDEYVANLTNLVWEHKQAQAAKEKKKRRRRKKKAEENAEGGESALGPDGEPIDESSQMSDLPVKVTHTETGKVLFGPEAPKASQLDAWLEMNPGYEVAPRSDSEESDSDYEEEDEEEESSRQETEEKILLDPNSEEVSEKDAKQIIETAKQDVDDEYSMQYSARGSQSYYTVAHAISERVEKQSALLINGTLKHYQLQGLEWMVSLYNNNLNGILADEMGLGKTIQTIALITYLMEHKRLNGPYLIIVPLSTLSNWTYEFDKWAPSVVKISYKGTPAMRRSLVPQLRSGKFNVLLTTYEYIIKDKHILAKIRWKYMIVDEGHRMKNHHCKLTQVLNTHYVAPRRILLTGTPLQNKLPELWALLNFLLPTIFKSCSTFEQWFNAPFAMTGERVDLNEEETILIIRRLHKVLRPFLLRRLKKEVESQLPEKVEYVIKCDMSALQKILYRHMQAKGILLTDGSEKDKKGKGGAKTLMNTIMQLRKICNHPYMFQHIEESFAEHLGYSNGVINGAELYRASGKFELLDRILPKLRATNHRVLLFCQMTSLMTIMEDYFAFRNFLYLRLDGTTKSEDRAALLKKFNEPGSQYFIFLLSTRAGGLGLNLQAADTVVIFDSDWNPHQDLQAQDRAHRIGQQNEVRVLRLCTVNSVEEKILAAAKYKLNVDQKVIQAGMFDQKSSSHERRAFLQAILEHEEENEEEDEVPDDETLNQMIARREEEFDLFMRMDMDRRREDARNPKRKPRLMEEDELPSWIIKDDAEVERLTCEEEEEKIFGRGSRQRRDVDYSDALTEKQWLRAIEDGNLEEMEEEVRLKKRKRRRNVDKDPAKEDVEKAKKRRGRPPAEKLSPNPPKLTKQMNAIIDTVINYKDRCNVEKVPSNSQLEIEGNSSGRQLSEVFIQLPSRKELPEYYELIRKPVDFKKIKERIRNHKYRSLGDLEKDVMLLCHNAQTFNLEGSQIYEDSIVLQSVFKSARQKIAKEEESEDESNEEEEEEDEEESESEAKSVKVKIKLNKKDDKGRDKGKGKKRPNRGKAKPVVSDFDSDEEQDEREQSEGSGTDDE
Procedure, shortened: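 HeLa cells stably expressing HiBiT-tagged BRM were treated for 24 h, then lysed with LgBiT-containing Nano-Glo reagent and luminescence read. % degradation scaled between DMSO (high control) and 2 μM reference BRM/BRG1 degrader (low control).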

T1 sequence (P51532 whole entry): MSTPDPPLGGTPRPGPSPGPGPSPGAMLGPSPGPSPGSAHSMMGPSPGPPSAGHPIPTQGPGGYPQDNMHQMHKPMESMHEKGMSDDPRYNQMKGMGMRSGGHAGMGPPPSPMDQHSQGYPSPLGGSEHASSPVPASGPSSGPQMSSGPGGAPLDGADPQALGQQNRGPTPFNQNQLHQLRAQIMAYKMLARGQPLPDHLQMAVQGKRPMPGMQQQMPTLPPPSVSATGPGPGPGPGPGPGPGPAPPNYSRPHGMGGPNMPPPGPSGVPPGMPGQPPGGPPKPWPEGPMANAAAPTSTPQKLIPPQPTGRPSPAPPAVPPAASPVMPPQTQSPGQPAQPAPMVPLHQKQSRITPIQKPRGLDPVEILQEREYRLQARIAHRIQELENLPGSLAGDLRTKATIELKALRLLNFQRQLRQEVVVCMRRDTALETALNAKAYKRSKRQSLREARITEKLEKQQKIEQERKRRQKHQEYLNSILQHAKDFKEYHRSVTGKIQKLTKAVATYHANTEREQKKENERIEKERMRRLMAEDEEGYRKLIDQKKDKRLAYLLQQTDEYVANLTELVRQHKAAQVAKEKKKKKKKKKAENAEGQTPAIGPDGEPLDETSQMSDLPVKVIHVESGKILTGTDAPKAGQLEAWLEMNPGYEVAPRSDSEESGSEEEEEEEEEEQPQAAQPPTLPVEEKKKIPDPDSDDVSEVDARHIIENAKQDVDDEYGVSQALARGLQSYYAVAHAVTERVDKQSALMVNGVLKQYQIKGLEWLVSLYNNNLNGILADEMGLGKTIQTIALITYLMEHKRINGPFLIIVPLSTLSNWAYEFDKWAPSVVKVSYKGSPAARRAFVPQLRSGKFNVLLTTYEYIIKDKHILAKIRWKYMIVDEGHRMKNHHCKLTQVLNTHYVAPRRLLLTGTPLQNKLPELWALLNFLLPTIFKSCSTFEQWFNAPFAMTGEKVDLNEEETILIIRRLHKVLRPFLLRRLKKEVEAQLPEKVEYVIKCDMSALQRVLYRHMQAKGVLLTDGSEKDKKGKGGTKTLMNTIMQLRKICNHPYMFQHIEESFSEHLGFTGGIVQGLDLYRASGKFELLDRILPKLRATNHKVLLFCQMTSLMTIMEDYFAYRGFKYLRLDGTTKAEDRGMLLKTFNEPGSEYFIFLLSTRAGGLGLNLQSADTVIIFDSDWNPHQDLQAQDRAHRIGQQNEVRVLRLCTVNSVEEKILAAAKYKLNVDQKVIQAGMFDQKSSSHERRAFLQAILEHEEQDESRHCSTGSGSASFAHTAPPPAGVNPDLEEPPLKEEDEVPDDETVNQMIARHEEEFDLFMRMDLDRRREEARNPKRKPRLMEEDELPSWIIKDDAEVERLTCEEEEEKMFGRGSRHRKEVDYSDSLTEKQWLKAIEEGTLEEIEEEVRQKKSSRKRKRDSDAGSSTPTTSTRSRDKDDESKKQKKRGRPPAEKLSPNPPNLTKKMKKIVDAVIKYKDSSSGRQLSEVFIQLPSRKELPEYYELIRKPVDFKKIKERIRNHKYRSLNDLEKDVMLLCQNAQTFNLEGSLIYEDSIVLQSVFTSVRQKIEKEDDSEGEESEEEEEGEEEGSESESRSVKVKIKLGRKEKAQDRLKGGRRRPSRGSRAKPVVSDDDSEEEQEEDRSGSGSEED

| Structure (SMILES) | DC50 [1] | Dmax [1] | BRM HiBit Degradation Maximum (%) [2] | DC50 [2] |
| --- | --- | --- | --- | --- |
| Cc1ncsc1-c1ccc(CNC(=O)[C@@H]2C[C@@H](O)CN2C(=O)[C@@H](NC(=O)CCN2CCC(O)(C(=O)NCc3ccc(CCOc4cc(-c5ccccc5O)nnc4N)cc3)CC2)C(C)(C)C)cc1 [Compound 185, N-[[4-(2-[[3-amino-6-(2-hydroxyphenyl)pyridazin-4-yl]oxy]ethyl)phenyl]methyl]-4-hydroxy-1-(2-[[(2S)-1-[(2S,4R)-4-hydroxy-2-([[4-(4-methyl-1,3-thiazol-5-yl)phenyl]methyl]carbamoyl)pyrrolidin-1-yl]-3,3-dimethyl-1-oxobutan-2-yl]carbamoyl]ethyl)piperidine-4-carboxamide] | > 1000 nM | < 50% | C (“C” indicates maximum degradation <50%) | > 1000 nM |
| Cc1ncsc1-c1ccc(CNC(=O)[C@@H]2C[C@@H](O)CN2C(=O)[C@@H](NC(=O)CCN2CCC3(CC2)CC(C(=O)NCc2ccc(CCOc4cc(-c5ccccc5O)nnc4N)cc2)C3)C(C)(C)C)cc1 [Compound 186, N-[[4-(2-[[3-amino-6-(2-hydroxyphenyl)pyridazin-4-yl]oxy]ethyl)phenyl]methyl]-7-(2-[[(2S)-1-[(2S,4R)-4-hydroxy-2-([[4-(4-methyl-1,3-thiazol-5-yl)phenyl]methyl]carbamoyl)pyrrolidin-1-yl]-3,3-dimethyl-1-oxobutan-2-yl]carbamoyl]ethyl)-7-azaspiro[3.5]nonane-2-carboxamide] | > 1000 nM | < 50% | C (“C” indicates maximum degradation <50%) | > 1000 nM |
| Cc1ncsc1-c1ccc(CNC(=O)[C@@H]2C[C@@H](O)CN2C(=O)[C@@H](NC(=O)CCNCc2ccc(CCOc3cc(-c4ccccc4O)nnc3N)cc2)C(C)(C)C)cc1 [Compound 187, (2S,4R)-1-((S)-2-(3-((4-(2-((3-amino-6-(2-hydroxyphenyl)pyridazin-4-yl)oxy)ethyl)benzyl)amino)propanamido)-3,3-dimethylbutanoyl)-4-hydroxy-N-(4-(4-methylthiazol-5-yl)benzyl)pyrrolidine-2-carboxamide] | > 1000 nM | < 50% | C (“C” indicates maximum degradation <50%) | > 1000 nM |
| Cc1ncsc1-c1ccc(CNC(=O)[C@@H]2C[C@@H](O)CN2C(=O)[C@@H](NC(=O)CCN2CC3(CN(CCC(=O)NCc4ccc(CCOc5cc(-c6ccccc6O)nnc5N)cc4)C3)C2)C(C)(C)C)cc1 [Compound 188, (2S,4R)-1-[(2S)-2-(3-[6-[2-([[4-(2-[[3-amino-6-(2-hydroxyphenyl)pyridazin-4-yl]oxy]ethyl)phenyl]methyl]carbamoyl)ethyl]-2,6-diazaspiro[3.3]heptan-2-yl]propanamido)-3,3-dimethylbutanoyl]-4-hydroxy-N-[[4-(4-methyl-1,3-thiazol-5-yl)phenyl]methyl]pyrrolidine-2-carboxamide] | > 1000 nM | < 50% | C (“C” indicates maximum degradation <50%) | > 1000 nM |
| Cc1ncsc1-c1ccc(CNC(=O)[C@@H]2C[C@@H](O)CN2C(=O)[C@@H](NC(=O)CCN2CCN(CCC(=O)NCc3ccc(CCOc4cc(-c5ccccc5O)nnc4N)cc3)CC2)C(C)(C)C)cc1 [Compound 189, (2S,4R)-1-[(2S)-2-(3-[4-[2-([[4-(2-[[3-amino-6-(2-hydroxyphenyl)pyridazin-4-yl]oxy]ethyl)phenyl]methyl]carbamoyl)ethyl]piperazin-1-yl]propanamido)-3,3-dimethylbutanoyl]-4-hydroxy-N-[[4-(4-methyl-1,3-thiazol-5-yl)phenyl]methyl]pyrrolidine-2-carboxamide] | > 1000 nM | < 50% | C (“C” indicates maximum degradation <50%) | > 1000 nM |
